According to patent US10039795B2, “Codon optimized recombinant phage and methods of using same” (priority 2014, dated 2018):
Where two headings read alike, the source gives them in different places.

Experiments:
Format in all cases: cell-based
Listeria = system: Listeria
[1] = system: stressed bacterial cells (Listeria); details: for effect on infection rate or enzymatic activity: antifungal agent added to base medium
Experimental: Media were screened for the ability to support high infection rate and high signal intensity following infection with phage encoding a luciferase marker. Bacterial cells were purposefully stressed by way of drying for 18 hours on a stainless steel table, followed by re-suspension in brain-heart infusion medium (BHI) for 30 minutes. The recovered cells were then infected with phage containing a luciferase marker for 6 hours followed by testing of the enzymatic activity using unpurified phage lysate and NanoLuc reagent.
BHI and TSB media were further titrated to assess whether there was an increase in RLU at different concentrations of base media.
Select components were added to the media in order to remedy known stressors to cells, and to reduce the possibility for other chemicals interfering with the test results. To this end, lithium chloride was added at defined concentrations to the selected 1×TSB base medium, followed by infecting the cells with a luciferase containing phage, and lastly by assaying the RLU detectable as a function of the percentage of lithium chloride added to the media. Lithium chloride was selected as an additive in order to overcome, prevent or limit growth of competing biologicals. […] (See FIG. 11).
Components selected to overcome cell starvation and oxidative stress, glucose and yeast extract, respectively, were titrated in 1×TSB, followed by infection of the bacteria with luciferase containing phage, and lastly by assaying the RLU detectable as a function of the percentage of either glucose or yeast extract.
Antifungal agents were also added to the base medium and tested in order to determine whether there is a decrease in RLU activity, either as a result of loss of enzyme activity or because of reduced infection ability. The anti-fungal agents tested included cycloheximide solution in DMSO.
The effect of divalent cations added to Formulation-1 was assessed. MgSO4 or CaCl2 was added to Formulation-1, followed by infection of bacteria with luciferase encoding phage, and assessment of resultant RLU.
The resultant formulation that incorporates all of the components of Formulation-1A, with the addition of HEPES, is herein referred to as Formulation-2 or as NIB-12.

[2] = system: bacteria exposed to luciferase encoding phage; assay: Phage infection and enzyme activity across media formulations (RLU); details: comparison across media formulations and additives
Experimental: A systematic comparison of RLU values as a function of additive component was performed on various media formulations. (See FIG. 15). The effects of different additives on both enzymatic activity, as well as infection ability, was measured and compared by way of assessing RLU across the different conditions.

1893 cell-type = assay: Sanitizer neutralization assay, phage infection step; details: added to NIB-14; 2 mM sodium metabisulfite or 0.05% sodium thiosulfate
Experimental: Following the 30 minute incubation period, the luciferase marker containing phage was added in BHI medium, and the samples were further allowed to incubate for an additional 3 hours at 30° C. The enzyme was then detected by the addition of the NanoGlo luciferin substrate and luminescence measurement. […] Another variant of this assay involved the direct incubation of the sterilization chemical with the NanoGlo luciferin substrate in the absence of either cells, phage or enzyme.

[3] = system: bacterial cells (Listeria); assay: RLU after phage infection in the presence of increasing quaternary ammonium salts; details: additive in Listeria Growth Broth
Excerpt: Bacterial cells were exposed to luciferase encoding phage in the following buffers, Listeria growth broth, Listeria growth broth with TWEEN®-80, or to Listeria growth broth with the addition of both TWEEN®-80 and lecithin. The RLU values are shown on the y-axis.
The addition of TWEEN®-80, either alone or in combination with lecithin, to the Formulation-2 (NIB-12) medium allowed for protection of the samples from interference by quaternary ammonium salts. (See FIG. 14). […] In this case, there was a sustained, detectable RLU in the presence of up to 62.5 ppm quaternary ammonium salts. The amount of resistance to quaternary ammonium salts was further increased through the addition of both lecithin and TWEEN®-80. With the addition of both reagents to Listeria Growth Broth, there was detectable RLU up to 125 ppm quaternary ammonium salts. Another preferred embodiment of the media contains 1.5% of TWEEN®-80 and 0.22% of lecithin.

[4] = component of aqueous solution (infection buffer)

Compound	Effect on Listeria Detection (Listeria; [4])	other results
O=C(O)CCC(=O)C(=O)O [Alpha-ketoglutarate]	negative	
[Ca+2].[Cl-].[Cl-] [Calcium chloride]		Effect on Listeria Detection (Listeria): neutral
CC(C)(O/N=C(\C(=O)N[C@@H]1C(=O)N2C(C(=O)[O-])=C(C[n+]3ccccc3)CS[C@H]12)c1csc(N)n1)C(=O)O [Ceftazidime, reference compound]	positive	
C[C@@H]1C[C@@H]([C@H](O)CC2CC(=O)NC(=O)C2)C(=O)[C@@H](C)C1 [Cycloheximide]	neutral	effect on infection rate or enzymatic activity [1]: Neither cycloheximide nor DMSO resulted in a decrease
C[S+](C)[O-] [DMSO]		effect on infection rate or enzymatic activity [1]: Neither cycloheximide nor DMSO resulted in a decrease
O=S(=O)([O-])[O-].[Fe+2] [Ferrous sulphate]	negative	
OCC(O)CO [Glycerol]	neutral	
O=S(=O)(O)CCN1CCN(CCO)CC1 [HEPES, pH 7.4, HEPES]	positive	ideal HEPES concentration for high RLU activity ([1]; titrated into Formulation-1A, 3 hour and 6 hour time points): 20 mM
[Cl-].[Li+] [Lithium chloride]	optimized	additive concentration giving highest RLU / selected on RLU levels ([1]; titrated in 1×TSB, 3 hour and 6 hour assay points): 0.25%
O=S(=O)(O)CCCN1CCOCC1 [MOPS, pH 7.2, MOPS]	positive	
O=S(=O)([O-])[O-].[Mg+2] [Magnesium sulphate]	positive	RLU activity on addition of divalent cation ([1]; added to Formulation-1, in comparison to CaCl2): marked increase; infection ability (RLU) [2]: large impact in increasing infection ability
CO[C@@]1(NC(=O)C(C(=O)O)c2ccc(O)cc2)C(=O)N2C(C(=O)O)=C(CSc3nnnn3C)CO[C@@H]21 (stereo partly drawn) [Moxalactam, reference compound]	neutral	
CCn1cc(C(=O)O)c(=O)c2ccc(C)nc21 [Nalidixic acid, reference compound]	positive	
C[N+](C)(C)CCOP(=O)(O)O.[Cl-] [Phosphocholine chloride]	negative	
O=C([O-])CC(O)(CC(=O)[O-])C(=O)[O-].[Na+].[Na+].[Na+] [Sodium citrate]	negative	
N[C@@H](CCC(=O)[O-])C(=O)[O-].[Na+].[Na+] [Sodium glutamate]	neutral	

Compound	Effect on Listeria Detection (Listeria; [4])	other results
O=C([O-])CC(=O)[O-].[Na+].[Na+] [Sodium malonate]	negative	
O=S([O-])S(=O)(=O)[O-].[Na+].[Na+] [Sodium metabisulfite]	positive	effect of oxygen scavenger on oxidizing effect of peroxide (1893 cell-type): reduced the oxidizing effect of peroxide
CC(=O)C(=O)[O-].[Na+] [Sodium pyruvate]	positive	RLU activity on addition of pyruvate ([1]; HEPES titration experiment): further increased RLU activity; infection ability (RLU) [2]: large impact in increasing infection ability
O=C([O-])CS.[Na+] [Sodium thioglycollate]	negative	
O=S([O-])([O-])=S.[Na+].[Na+] [Sodium thiosulfate]		effect of oxygen scavenger on oxidizing effect of peroxide (1893 cell-type): reduced the oxidizing effect of peroxide; Effect on Listeria Detection (Listeria): negative
OC[C@H]1O[C@@](CO)(O[C@H]2O[C@H](CO)[C@@H](O)[C@H](O)[C@H]2O)[C@@H](O)[C@@H]1O [Sucrose]	neutral	
Cc1ncc(C[n+]2csc(CCO)c2C)c(N)n1 [Thiamine]	neutral	
Acriflavin	negative	
Ferric ammonium citrate	neutral	
Ferric citrate	neutral	
Ferric sulfate	neutral	
O-octophosphorylcholine	negative	
Polysorbate 20	negative	
Polysorbate 80	positive	quaternary ammonium salts concentration up to which RLU is detectable [3]: up to 62.5 ppm; infection ability (RLU) [2]: large impact in increasing infection ability
Triton X-100	negative	
